# Source: paper PMC7274485, “A symbiotic bacterium of shipworms produces a compound with broad spectrum anti-apicomplexan activity” (PLoS Pathogens, 2020)
# “Also recorded” adds a separate entry of the source.
# How the values were obtained:
# Sarcocystis neurona = Sarcocystis neurona GFP/Luc merozoite growth in bovine turbinate cells, luciferase expression; type: cell-based; conditions: 24 hours treatment, read-out: EC50 against S. neurona
# Protocol: Culture of Sarcocystis neurona GFP/Luc merozoites in bovine turbinate cells and in vitro drug response assays were conducted as previously described.
# A. Bovine turbinate cells infected with luciferase expressing Sarcocystis neurona merozoites were treated with trtE for 24 hours and parasite growth evaluated by luciferase expression. […] B. Theileria equi-infected erythrocytes were incubated with trtE or DMSO vehicle control and proliferation was measured after 72 hours by SYBR green incorporation. Percent proliferation was calculated relative to DMSO treated controls. […] (DOCX) Click here for additional data file.
# Bovine turbinate cells = experiment: Cytotoxicity for host cells, cellular ATP (CellTiter-Glo): BT cells
# Protocol: Toxicity was evaluated by measuring cellular ATP concentrations.
# HCT8, HFF and BT cells were seeded in 96-well plates to achieve 20–30% confluence after 24 hours of growth.
# Cryptosporidium parvum = experiment: Neonatal mouse model of Cryptosporidium parvum infection; type: in vivo, mice; conditions: for Number of parasites in the intestine (histology infection score): 2 mg/kg orally every 12 hours, four doses, 5 days post infection, purification method 1
# Protocol: Of all apicomplexans that infect both humans and domesticated animals, Cryptosporidium is a particular challenge for human and veterinary medicine as there is currently no effective treatment for this parasite. We chose to evaluate the in vivo efficacy of trtE using a neonatal mouse model of C. parvum infection. […] In a preliminary experiment, ten, 8 day old mice were infected with C. parvum and then treated with four doses of 2 mg/kg of trtE (purification method 1) given orally every 12 hours for 2 days. Control mice received DMSO vehicle control. Five days post infection, mice were euthanized and the intestines processed for histology. Infection was scored by visual evaluation of infection intensity throughout the intestine by an investigator blinded to treatment. […] Eight-day-old mice, infected with C. parvum, were treated orally twice daily with trtE at 0.4, 4 or 40 mg/kg beginning two days post-infection and continuing for 2 days. On day 5, mice were euthanized and intestines processed for quantitative PCR to quantify infection.
# 8-day-old mice were infected with 5x10^4 oocysts by oral gavage. In the initial preliminary experiment using trtE purified by method 1, mice were treated 48 hrs post infection with 2 mg/kg trtE every 12 hours by oral gavage for a total of 4 treatments. Control mice received vehicle control (DMSO diluted in DMEM containing 10% fetal calf serum). Mice were sacrificed 5 days post infection and intestines prepared for histological evaluation. Slides were blinded and the intensity of infection scored in the terminal jejunum, ileum, caecum and colon as previously described. Infection intensity scores for each region were added together to give a total infection score for the animal.
# In the second set of experiments, mice were infected and treated as before, with 0.4, 4 or 40 mg/kg of trtE purified using method 2. Control mice received vehicle control in parallel. Mice were sacrificed 5 days post-infection and infection quantified by qPCR as previously described. The experiment was conducted three times.
# T. gondii = experiment: Intracellular T. gondii growth inhibition, luciferase expression in HFF cells; type: cell-based; conditions: Toxoplasma gondii; luciferase expressing RH or ME49 strain in HFF cells; trtE added 24 hours post-infection, read 24 hours later; purification method 1 or 2; read-out: EC50 against intracellular T. gondii
# Protocol: To obtain sufficient trtE for in vitro and in vivo experiments, bacterial growth conditions were optimized, and a modified purification method was developed and validated by ESI-HRMS, LC/MS/MS and NMR (purification method 2; see methods and S8–S9 Figs). To determine the effective concentration at which trtE inhibited the growth of 50% of T. gondii parasites (EC50), HFF cells were seeded into 96 well plates and infected with luciferase expressing T. gondii tachyzoites. 24 hours post-infection two-fold serial dilutions of trtE, purified by method 1 or method 2, or DMSO vehicle control were added to the infected cells. 24 hours later, the infected cells were lysed and parasite growth quantified by luciferase expression. The EC50 of trtE against intracellular T. gondii was determined to be 3 nM regardless of purification method.
# T. gondii parasite lines were maintained by passage in HFFs as previously described. […] Growth was monitored by luciferase expression using Bright-glo Luciferase assay system (Promega Corp., Madison, WI). […] Infected cells were then incubated for 72 hours before growth was quantified by luciferase expression. […]
# [1] = Pilot pharmacokinetic study in lambs; type: in vivo
# Excerpt: A full PK/PD study of trtE in mice and lambs has recently been funded, so in the near future we will be able to answer these questions.
smiles,measurement,setting,value
"CC1CCC=CC=CCCC(O)CC(=O)CC2CCC(C)C3(O2)O[B-]24OC(C(=O)O1)C1(OC(CCC1C)CC(=O)CC(O)CCC=CC=CCCC(C)OC(=O)C3O2)O4 (stereo not drawn) [trtE, tartrolon E]",EC50,Sarcocystis neurona,12.9 nM
same,TC50 (median toxic concentration) for BT cells,"Bovine turbinate cells; 20–30% confluency, 24 hours, cellular ATP",16800 nM
same,"Selectivity Index, S. neurona vs Bovine turbinate cells",Bovine turbinate cells; TC50/EC50,1302
same,Number of parasites in the intestine (histology infection score),Cryptosporidium parvum,significantly reduced the number of parasites
same,Number of parasites in the intestine (histology infection score),Cryptosporidium parvum; listed as TrtE,significantly reduced the number of parasites in the intestine
same,Reduction of intestinal Cryptosporidium infection (qPCR),"Cryptosporidium parvum; 4 mg/kg orally twice daily for 2 days from two days post-infection, day 5, purification method 2",85%
same,Intestinal Cryptosporidium infection (qPCR),"Cryptosporidium parvum; 40 mg/kg orally twice daily for 2 days from two days post-infection, day 5, purification method 2",nearly eliminated
same,Overt signs of toxicity in neonatal mice (discussion),Cryptosporidium parvum; four doses of 40 mg/kg over two days,did not exhibit overt signs of toxicity
same,Overt signs of toxicity in trtE treated neonatal mice,Cryptosporidium parvum; oral doses up to 40 mg/kg twice daily for 2 days,no overt toxicity was observed; also recorded: did not observe overt toxicity; also recorded: no overt signs of toxicity
same,EC50,T. gondii,3 nM
same,Absorption from the intestine,[1]; in vivo,rapidly absorbed from the intestine
same,Tolerability in lambs,"[1]; pilot study, lambs",tolerated by the animals
